The text below walks through data of ChEMBL document CHEMBL6114949, “Synthesis and physiological effects of new 4-aminophenol derivatives as paracetamol analogues” (Bioorg Med Chem Lett, 2025).

Data set [1] has as its system Rattus norvegicus. As to the kind of experiment: Antipyretic activity against LPS-induced polyphasic febrile response in rats assessed as suppression of rise in core body temperature at 240 mg/kg, po treated 40 mins prior to LPS addition and measured after 10 mins. In kind it is functional, organism-based. As to conditions: time 50.0 min.
In data set [2] the test system is Rattus norvegicus. The experiment in a line: Antipyretic activity against LPS-induced polyphasic febrile response in rats assessed as change in core body temperature at 240 mg/kg, po treated 40 mins prior to LPS addition and measured after 160 mins during phase 1 (reference value: 0.85 deg C). In kind it is functional, organism-based. Particulars: time 200.0 min.

Data set [3] deals with Rattus norvegicus. As to the kind of experiment: Antipyretic activity against LPS-induced polyphasic febrile response in rats assessed as suppression of rise in core body temperature at 240 mg/kg, po treated 40 mins prior to LPS addition and measured after 200 mins. Format: functional, organism-based. Particulars: time 240.0 min.
In data set [4] the test system is Rattus norvegicus. As to the kind of experiment: Antipyretic activity against LPS-induced polyphasic febrile response in rats assessed as suppression of rise in core body temperature at 240 mg/kg, po treated 40 mins prior to LPS addition and measured after 160 mins relative to control. In kind it is functional. Particulars: time 200 min, 3.333 h.
The subject of data set [5] is Rattus norvegicus. The experiment in a line: Antinociceptive activity in zymosan-induced rat arthritis model assessed as nociceptive response inhibition at 240 mg/kg, ig administered once daily for 7 days and measured 1 hr post-zymosan challenge on day 7 by Randall-Selitto test (reference value: -34.6%). In kind it is functional. Particulars: po, 168 h, time 7 day.

The test system of data set [6] is Rattus norvegicus. As to the kind of experiment: Antinociceptive activity in zymosan-induced rat model of thermal nociceptive hypersensitivity assessed as nociceptive response inhibition at 240 mg/kg, ig administered once daily for 7 days and measured 1 hr post-zymosan challenge on day 7 by hot-plate test (reference value: -42.4%). Particulars: po, 168 h, time 7 day. In kind it is functional. In general terms: Thermal pain tests record how soon the animal reacts.

Data set [7] can be described thus: Hepatotoxicity in zymosan-induced rat arthritis model assessed as effect on beam structure of liver at 240 mg/kg, ig administered once daily for 7 days by hematoxylin-eosin staining based histological analysis. In kind it is toxicity, organism-based. Particulars: in vivo, po, 168 h, time 7 day.
Data set [8] is described as follows: Hepatotoxicity in zymosan-induced rat arthritis model assessed as effect on general architecture of liver at 240 mg/kg, ig administered once daily for 7 days by hematoxylin-eosin staining based histological analysis. Particulars: in vivo, po, 168 h, time 7 day. In kind it is toxicity, organism-based.
Data set [9] in a line: Hepatotoxicity in zymosan-induced rat arthritis model assessed as effect on sinusoids elongation at 240 mg/kg, ig administered once daily for 7 days by hematoxylin-eosin staining based histological analysis. In kind it is toxicity, organism-based, Liver. As to conditions: in vivo, po, 168 h, time 7 day.
A short description of data set [10]: Hepatotoxicity in zymosan-induced rat arthritis model assessed as effect on sinusoids arrangement at 240 mg/kg, ig administered once daily for 7 days by hematoxylin-eosin staining based histological analysis. Format: toxicity, organism-based, Liver. Particulars: in vivo, po, 168 h, time 7 day.
A short description of data set [11]: Hepatotoxicity in zymosan-induced rat arthritis model assessed as change in hepatocyte shape at 240 mg/kg, ig administered once daily for 7 days by hematoxylin-eosin staining based histological analysis. In kind it is toxicity, organism-based, Liver. As to conditions: in vivo, po, 168 h, time 7 day.
Data set [12] in a line: Hepatotoxicity in zymosan-induced rat arthritis model assessed as disruption of hepatocyte membrane at 240 mg/kg, ig administered once daily for 7 days by hematoxylin-eosin staining based histological analysis. Format: toxicity, organism-based, Liver. As to conditions: in vivo, po, 168 h, time 7 day.
Data set [13] in a line: Hepatotoxicity in zymosan-induced rat arthritis model assessed as change in hepatocyte nucleus size at 240 mg/kg, ig administered once daily for 7 days by hematoxylin-eosin staining based histological analysis. In kind it is toxicity, organism-based, Liver. Particulars: in vivo, po, 168 h, time 7 day.
Data set [14] can be described thus: Hepatotoxicity in zymosan-induced rat arthritis model assessed as change in hepatocyte karyoplasm at 240 mg/kg, ig administered once daily for 7 days by hematoxylin-eosin staining based histological analysis. In kind it is toxicity, organism-based, Liver. As to conditions: in vivo, po, 168 h, time 7 day.
A short description of data set [15]: Hepatotoxicity in zymosan-induced rat arthritis model assessed as appearance of vacuoles in hepatocyte cytoplasm at 240 mg/kg, ig administered once daily for 7 days by hematoxylin-eosin staining based histological analysis. Format: toxicity, organism-based, Liver. As to conditions: in vivo, po, 168 h, time 7 day.
Data set [16] can be described thus: Hepatotoxicity in zymosan-induced rat arthritis model assessed as change in hepatocyte cytoplasmic appearance at 240 mg/kg, ig administered once daily for 7 days by hematoxylin-eosin staining based histological analysis. As to conditions: in vivo, po, 168 h, time 7 day. In kind it is toxicity, organism-based, Liver.
A short description of data set [17]: Hepatotoxicity in zymosan-induced rat arthritis model assessed as change in shape of liver central veins at 240 mg/kg, ig administered once daily for 7 days by hematoxylin-eosin staining based histological analysis. In kind it is toxicity, organism-based. As to conditions: in vivo, po, 168 h, time 7 day.
The nature of data set [18]: Hepatotoxicity in zymosan-induced rat arthritis model assessed as change in shape of liver portal tracts at 240 mg/kg, ig administered once daily for 7 days by hematoxylin-eosin staining based histological analysis. As to conditions: in vivo, po, 168 h, time 7 day. Format: toxicity, organism-based.

Active and inactive are the calls of the source. The rule behind the calls is not given here.

As for `CCCCCCCCCCCCCCCC(=O)Nc1ccc(OCC(=O)NCCO)cc1`, the outcome in the data set on Rattus norvegicus [1] and in the data set on Rattus norvegicus [3] was Active. In addition, the thermal shift (ΔTm) (usually the change in melting temperature against a reference sample) in the data set on Rattus norvegicus [2] amounted to 0.28 °C. In the data set on Rattus norvegicus [4], the “fold change (FC)” value stood at 3. The inhibition in vivo (as a rule, the relative decrease from the control value, in per cent) at 240 mg/kg turned out to be 23.1% in the data set on Rattus norvegicus [5] and 29.8% in the data set on Rattus norvegicus [6]. Also, the Activity result in [7], in data set [8], in data set [9], in data set [10], in [11] and in [12] was “Non-toxic” throughout. The Activity entry in [13], in [14], in data set [15], in [16], in [17] and in data set [18] was “Non-toxic” each time.
